The values below come from patent US10001472B2, “3D determination of cell chirality” (Rensselaer Polytechnic Institute, priority 2015, dated 2018).

Each structure is given as a SMILES string.

The assay concerns Madin-Darby canine kidney (MDCK) epithelial cells. The experiment in a line: 3D cell chirality (rotation direction) of cells in bilayer MATRIGEL substrate. Type of assay: cell-based. Conditions: MDCK cells in 3D substrate, FIG. 5. How it is done:
The cell line used was Madin-Darby canine kidney (MDCK) epithelial cells. The 3D substrate culture system included a base layer was composed of 100% MATRIGEL®. The base layer was seeded with a single cell suspension of MDCK epithelial cells. After cell attachments to the base layer, a top layer was generated by overlaying culture with 2% MATRIGEL®.
Self-organization of the epithelial cells during microtissue development was observed using phase contrast imaging and confocal microscopy. The cells were stained with DAPI (4′,6-diamidino-2-phenylindole), Phalloidin, and ZO-1 antibody.
Time-lapse images were collected for at least 2 hours at intervals of 1 minute over a period of 6 days. Videos were processed in ImageJ and analyzed for quantification of collective rotational direction. Direction of rotation was categorized into clockwise (CW), counterclockwise (CCW), complex rotation, and no rotation. Phase-contrast images of microtissue development from a single cell embedded within the multilayer MATRIGEL® system over time.
Latrunculin A was used to study the role of actin function in left right asymmetry. Latrunculin A is a drug which inhibits actin polymerization. […] These studies are consistent with 2D studies.

For `C/C1=C/C(=O)O[C@@H]2C[C@@H](CC[C@H](C)/C=C\C=C\CC1)O[C@@](O)([C@@H]1CSC(=O)N1)C2` [Latrunculin A], the “effect on cell chirality (rotation direction)” value (base layer 100% MATRIGEL, top layer 2% MATRIGEL) is reported as “reversal of chirality”. Further, the “concentration dependence of chirality effect” value (higher concentrations of Latrunculin A) was “increasing clockwise chirality”.
